# Measured values from patent US12202840B2, “Compounds for the treatment or alleviation of disorders associated with Tau aggregates” (AC Immune SA, priority 2018, dated 2025).
# Test system: Iba1 positive microglia
# Experiment: Iba1 immunoreactivity (microgliosis), study of Example 2
# Type: in vivo
# Conditions: rTg4510 mice, once daily by gavage, 20 mg/kg; FIG. 6B
# Method: Double transgenic rTg4510 mice are an aggressive Tauopathy model expressing the full-length human Tau carrying the P301L mutation (Tau4R0N-P301L) under the control of the tetracycline-inducible CaMKII promoter (Ramsden et al., 2005). Wild-type animals and single transgenic mice expressing only the tetracycline-controlled transactivator (tTA) were used as genotype controls. Mice were treated and tested. The study comprised 4 treatment groups (n=15 female mice/group) with the following group distribution (see Table 6). Compound of the invention or vehicle control were administered once daily by gavage for 12 weeks starting at the age of 5.5 weeks. The Morris Water Maze (MWM) behavioral test was performed after 12.5 weeks of treatment over 5 consecutive days. During MWM testing daily dosing was continued. Behavioral testing (MWM) and biochemical quantification of sarkosyl-insoluble Tau were performed on all mice (n=15 mice/group). Measurement of cortical atrophy and histology for Iba1 were performed on 10 mice/group.
# One section per animal from layer 6 was also used to quantify the Iba1 immunoreactivity. […] Sections were imaged using a digital slide scanner (Pannoramic 250 BF Flash+FL, 3D Histech Ltd.) and quantified using the image visualization software CaseViewer and the image analysis software module HistoQuant (3D Histech Ltd.).
smiles,measurement,value
CN(C)[C@@H]1CCc2c(c3ccc(Nc4ccc5sc(N6CCOCC6)nc5c4)nc3n2C)C1 [Example 2],Iba1 immunoreactive area,significant decrease
